Like-named read-outs stand apart in the source and are kept apart here.
How the values were obtained:
[1] = molecular target: p70S6K (Homo sapiens, UniProt P23443); assay: Luciferase-coupled chemiluminescence kinase assay (ATP consumption); type: biochemical
Protocol: (§1) One measure of inhibition is Ki. […] The Ki for a compound is determined from the IC50 based on three assumptions. First, only one compound molecule binds to the enzyme and there is no cooperativity. […] Third, the enzymatic rate of the enzyme-inhibitor complex is zero. The rate data (i.e. compound concentration) are fitted to the equation: […]
(§2) Luciferase-Coupled Chemiluminescence Assay Protocol
(§3) Kinase activity is measured as the percent of ATP consumed following the kinase reaction using luciferase-luciferin-coupled chemiluminescence. Reactions were conducted in 384-well white, medium binding microtiter plates (Greiner). Kinase reactions were initiated by combining test compounds, ATP and kinase in a 20 uL volume. The reaction mixture was incubated at ambient temperature for 3 hrs. For p70S6K and/or AktK, 2.5-5 nM of the enzyme was pre-incubated with compound in 20 mM Tris pH 7.5, 10 mM MgCl2, 0.03% TX-100, and 1 mM DTT for 30 minutes at room temperature. Following the kinase reaction, a 20 μL aliquot of luciferase-luciferin mix was added and the chemiluminescence signal measured using a Victor^2 plate reader (Perkin Elmer). The luciferase-luciferin mix contained 50 mM HEPES, pH 7.8, 67 mM oxalic acid (pH 7.8), 5 (or 50) mM DTT, 0.4% Triton X-100, 0.25 mg/mL coenzyme A, 63 μM AMP, 28 μg/1 mL luciferin and 40,000 units/mL luciferase. Total ATP consumption was limited to 25-60% and the IC50 values correlate well with those determined by radiometric assays.

[2] = molecular target: AktK (Homo sapiens, UniProt P31749); assay: as above; type: biochemical; details: read-out: AKT-1 IC50
Chain of AktK (P31749 whole entry): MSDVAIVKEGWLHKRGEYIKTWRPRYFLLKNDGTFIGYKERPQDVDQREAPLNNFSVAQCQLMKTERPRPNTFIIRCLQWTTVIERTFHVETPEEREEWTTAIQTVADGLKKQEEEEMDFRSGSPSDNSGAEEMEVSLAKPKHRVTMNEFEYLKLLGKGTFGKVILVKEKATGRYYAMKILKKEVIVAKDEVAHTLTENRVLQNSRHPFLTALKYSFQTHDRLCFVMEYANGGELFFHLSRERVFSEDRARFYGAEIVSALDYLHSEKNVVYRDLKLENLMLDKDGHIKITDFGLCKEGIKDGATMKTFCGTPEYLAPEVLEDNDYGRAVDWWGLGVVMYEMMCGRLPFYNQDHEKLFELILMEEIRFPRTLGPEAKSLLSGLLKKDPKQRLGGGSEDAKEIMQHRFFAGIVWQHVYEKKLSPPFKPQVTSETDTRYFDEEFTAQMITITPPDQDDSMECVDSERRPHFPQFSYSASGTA
Protocol: as §1, §2, §3

Chain of p70S6K (P23443 whole entry): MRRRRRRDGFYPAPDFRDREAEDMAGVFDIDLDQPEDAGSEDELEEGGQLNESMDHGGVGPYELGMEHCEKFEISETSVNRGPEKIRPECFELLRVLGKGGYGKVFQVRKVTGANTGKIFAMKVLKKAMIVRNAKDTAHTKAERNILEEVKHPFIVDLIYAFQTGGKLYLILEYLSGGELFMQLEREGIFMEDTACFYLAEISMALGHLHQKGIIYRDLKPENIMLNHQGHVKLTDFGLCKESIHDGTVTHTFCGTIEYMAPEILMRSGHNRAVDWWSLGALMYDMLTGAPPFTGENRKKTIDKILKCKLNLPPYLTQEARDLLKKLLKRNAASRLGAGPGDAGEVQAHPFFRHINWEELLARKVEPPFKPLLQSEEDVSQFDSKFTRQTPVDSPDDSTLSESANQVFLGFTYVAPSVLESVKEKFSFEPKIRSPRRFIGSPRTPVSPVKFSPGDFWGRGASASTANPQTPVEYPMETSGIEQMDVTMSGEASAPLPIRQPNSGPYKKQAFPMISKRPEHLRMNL

Row | Structure (SMILES) | IC50 ([1]; Table 1, class symbols per key) [nM] | IC50 ([2]; Table 1, class symbols per key) [nM] | IC50 [1] [nM] | IC50 [2] [nM]
1 | Cc1ccc(C(=O)Nc2ccccc2)cc1N1CCN(c2ncnc3[nH]nc(Br)c23)CC1=O [Entry 199, 3-[4-(3-bromo-1H-pyrazolo[3,4-d]pyrimidin-4-yl)-2-oxopiperazin-1-yl]-4-methyl-N-phenylbenzamide] | < 100 | 1000 to 10000 |  | 
2 | Cc1ccc(Cl)cc1N1CCN(c2ncnc3[nH]nc(CCC(=O)O)c23)CC1 [Entry 370, 3-{4-[4-(5-chloro-2-methylphenyl)piperazin-1-yl]-1H-pyrazolo[3,4-d]pyrimidin-3-yl}propanoic acid] |  |  | < 100 | 1000 to 10000
3 | Cc1ccc(Cl)cc1N1CCN(c2ncnc3[nH]nc(-c4ccc(F)cc4)c23)CC1 [Entry 357, 4-[4-(5-chloro-2-methylphenyl)piperazin-1-yl]-3-(4-fluorophenyl)-1H-pyrazolo[3,4-d]pyrimidine] |  |  | 100 to 1000 | 1000 to 10000
4 | Cc1cccc(N2CCN(c3ncnc4[nH]nc(Br)c34)CC2C)c1 (centres unmarked) [Entry 158, 3-bromo-4-[3-methyl-4-(3-methylphenyl)piperazin-1-yl]-1H-pyrazolo[3,4-d]pyrimidine] | < 100 | 1000 to 10000 |  | 
5 | Cc1c(NCCN2CCCC2)cc(OCC2CCCC2)cc1N1CCN(c2ncnc3[nH]nc(Br)c23)CC1 [Entry 218, 3-[4-(3-bromo-1H-pyrazolo[3,4-d]pyrimidin-4-yl)piperazin-1-yl]-5-[(cyclopentylmethyl)oxy]-2-methyl-N-(2-pyrrolidin-1-ylethyl)aniline] | < 100 | < 100 |  | 
6 | Fc1ccc(F)c(N2CCN(c3ncnc4[nH]nc(Br)c34)CC2)c1 [Entry 131, 3-bromo-4-[4-(2,5-difluorophenyl)piperazin-1-yl]-1H-pyrazolo[3,4-d]pyrimidine] | < 100 | ≥ 10000 |  | 
7 | Cc1ccc(-c2n[nH]c3ncnc(N4CCN(c5cc(Cl)ccc5C)CC4)c23)cc1 [Entry 341, 4-[4-(5-chloro-2-methylphenyl)piperazin-1-yl]-3-(4-methylphenyl)-1H-pyrazolo[3,4-d]pyrimidine] |  |  | 1000 to 10000 | 1000 to 10000
8 | Cc1ccc(N2CCN(c3ncnc4[nH]nc(Br)c34)CC2)cc1NCCN1CCCC1 [Entry 57, 5-[4-(3-bromo-1H-pyrazolo[3,4-d]pyrimidin-4-yl)piperazin-1-yl]-2-methyl-N-(2-pyrrolidin-1-ylethyl)aniline] | 100 to 1000 | 1000 to 10000 |  | 

The next lines start with the values.

Row | IC50 ([1]; Table 1, class symbols per key) [nM] | IC50 ([2]; Table 1, class symbols per key) [nM] | IC50 [1] [nM] | IC50 [2] [nM] | Structure (SMILES)
9 |  |  | 1000 to 10000 | 1000 to 10000 | Cc1ccc(Cl)cc1N1CCN(c2ncnc3[nH]nc(-c4ccc(OCCN5CCOCC5)cc4)c23)CC1 [Entry 373, 4-[4-(5-chloro-2-methylphenyl)piperazin-1-yl]-3-{4-[(2-morpholin-4-ylethyl)oxy]phenyl}-1H-pyrazolo[3,4-d]pyrimidine]
10 |  |  | < 100 | 1000 to 10000 | CCc1n[nH]c2ncnc(N3CCN(c4cc(Cl)c(O)cc4C)CC3)c12 [Entry 381, 2-chloro-4-[4-(3-ethyl-1H-pyrazolo[3,4-d]pyrimidin-4-yl)piperazin-1-yl]-5-methylphenol]
11 | < 100 | < 100 |  |  | Cc1c(OCC2CCN(C)CC2)cc(Cl)cc1N1CCN(c2ncnc3[nH]nc(Br)c23)CC1 [Entry 88, 3-bromo-4-[4-(5-chloro-2-methyl-3-{[(1-methyl-piperidin-4-yl)methyl]oxy}phenyl)piperazin-1-yl]-1H-pyrazolo[3,4-d]pyrimidine]
12 | < 100 | 1000 to 10000 |  |  | Cc1c(OCCN2CCCC2)cc(Cl)cc1N1CCN(c2ncnc3[nH]nc(C4CC4)c23)CC1 [Entry 160, 4-(4-{5-chloro-2-methyl-3-[(2-pyrrolidin-1-ylethyl)oxy]phenyl}piperazin-1-yl)-3-cyclopropyl-1H-pyrazolo[3,4-d]pyrimidine]
13 | < 100 | 100 to 1000 |  |  | Cc1c(OCCCN2CCCC2)cc(Cl)cc1N1CCN(c2ncnc3[nH]nc(C(F)(F)F)c23)CC1 [Entry 68, 4-(4-{5-chloro-2-methyl-3-[(3-pyrrolidin-1-ylpropyl)oxy]phenyl}piperazin-1-yl)-3-(trifluoromethyl)-1H-pyrazolo[3,4-d]pyrimidine]
